Reference: patent US20210403567A1, “METHODS OF TREATING CERVICAL CANCER BY ADMINISTERING A PD-1 INHIBITOR” (priority 2020, published 2021)
Where two headings read alike, the source gives them in different places.

Columns and labels:
[1] = system: recurrent or metastatic cervical cancer that has progressed after first-line platinum-based treatment
cervical cancer [2] = conditions: 12/98; cited from earlier work
cervical cancer [3] = conditions: patient population of 60% squamous histology; cited from earlier work
cervical cancer [4] = conditions: 5/19; squamous histology only; cited from earlier work
[5] = subgroup with IC chemotherapy selected prior to randomisation: Irinotecan (n = 26 vs 19)
[6] = subgroup with IC chemotherapy selected prior to randomisation: Gemcitabine (n = 108 vs 121)

In the case of `CCc1c2c(nc3ccc(OC(=O)N4CCC(N5CCCCC5)CC4)cc13)-c1cc3c(c(=O)n1C2)COC(=O)[C@]3(O)CC` [irinotecan, reference compound], the “Median OS (95% CI)” value [1, 5] is reported as 11.8 (6.9-14.9) months, the “Median PFS (95% CI)” value [1, 5] is reported as 4.2 (1.6-8.3) months and the ORR [1, 5] is reported as 15.8%.

In the case of `Nc1ccn([C@@H]2O[C@H](CO)[C@@H](O)C2(F)F)c(=O)n1` [gemcitabine, reference compound], the “Median OS (95% CI)” value [1, 6] is reported as 9.0 (7.0-10.6) months, the “Median PFS (95% CI)” value [1, 6] is reported as 2.8 (2.1-3.9) months and the ORR [1, 6] is reported as 5.0%.

For pembrolizumab, the “ORR in the cervical cancer cohort” value (cervical cancer [2]) is given as 12.2%.

For nivolumab, the response rate (cervical cancer [3]) is listed as 4% and the objective response rate (cervical cancer [4]) is listed as 26.3%.
